Laboratory results as given in publication PMC7397155, “Comparison of Chemotherapeutic Activities of Rhodamine-Based GUMBOS and NanoGUMBOS” (Molecules, 2020).
Each block holds one compound with its values, some of them ahead of it.

Assays:
Water solubility study = type: physicochemical; conditions: water solubility at physiological pH
Method: Approximately fifty milliliters of water were added to three milligrams of GUMBOS. Absorbance measurements were then acquired over time until the absorbance reached a plateau. A calibration curve for an aqueous solution of GUMBOS was then generated at a soluble concentration, and the slope of the curve was used to calculate the solubility concentration. The solubility constant (Ksp) was then calculated using this concentration.

MDA-MB-231 cancer cells = assay: MTT cell viability assay, MDA-MB-231 breast cancer cells; type: cell-based, human; conditions: 48 h incubation
Method: (§1) Hormone-independent breast adenocarcinoma (MDA-MB-231), hormone-dependent breast adenocarcinoma (MCF7), human pancreatic carcinoma (Mia-Paca), and normal human fibroblast cell lines were purchased from American […] Culture Collection (ATCC, Manassas, VA, USA). Cell lines were cultured to 90% confluence using ATTC guidelines for cell culture prior to experimentation.
A 96 well plate was seeded with 5000 cells/well and incubated for 24 h to allow attachment. […] These compounds were then incubated into the cells for 48 h, followed by MTT assay to determine cell viability. Firstly, 15 µL of the MTT dye solution was incubated in the cells for 3 h. The MTT dye reacts with NADPH present in live cells to form an insoluble purple formazan product. Subsequently, 100 µL of a stop solution was added to solubilize this product and halt the enzymatic reaction between NADPH and MTT. Cells were then incubated with stop solution for 1 h. The absorbance of the formazan was then measured at 570 nm using a microplate spectrophotometer. Cell viability is reported as the ratio between experimental groups and a control normalized to 100%. All measurements were performed in triplicate measurements to obtain standard error, and the reported cell viability is the average of these measurements. The IC50 was calculated using the formula:
(§2) ((0.5−(f(a))×(b−a)+(f(b)−f(a))×a))/(f(b)−f(a)) where a is the concentration where the cell viability is above 50%, b is the concentration where the cell viability is below 50%, and f(a) and f(b) are respectively the cell viability percentages *0.01 at concentration a and b respectively.

[1] = Octanol buffer partition coefficient; type: physicochemical; conditions: 1-octanol / pH 7.4 phosphate-citric acid buffer, 48 h stirring
Method: Into a 20 mL vial, 1-Octanol is mixed with a pH 7.4 phosphate-citric acid buffer and stirred overnight. The two layers were separated and then a calibration curve was generated for each compound in 1-octanol using various concentrations. The phosphate-citric acid buffer was then added to one of the concentrations (Ci) and this mixture was stirred for 48 h. Subsequently, absorbance in the octanol layer was measured and the concentration (Co) calculated using the calibration curves. Later, the equation Ci − C0 = Cw was used to calculate the aqueous concentration (Cw). The octanol–water partition coefficient was then calculated using the equation Kow = […]/Cw.

Hs578Bst normal cells = assay: MTT cell viability assay, Hs578Bst normal breast cells; type: cell-based, human; conditions: for IC50: RB and R110 GUMBOS and parent dyes, normal breast cells, 48 h incubation, MTT
MiaPaca cancer cells = assay: MTT cell viability assay, MiaPaca pancreatic cancer cells; design: species or system human; conditions: 48 h incubation
Method: as §1
(§3) A 96 well plate was seeded with 5000 cells/well and incubated for 24 h to allow attachment. Serial dilution from 100 µM to 0 µM was performed for each compound. These compounds were then incubated into the cells for 48 h, followed by MTT assay to determine cell viability. Firstly, 15 µL of the MTT dye solution was incubated in the cells for 3 h. The MTT dye reacts with NADPH present in live cells to form an insoluble purple formazan product. Subsequently, 100 µL of a stop solution was added to solubilize this product and halt the enzymatic reaction between NADPH and MTT. Cells were then incubated with stop solution for 1 h. The absorbance of the formazan was then measured at 570 nm using a microplate spectrophotometer. Cell viability is reported as the ratio between experimental groups and a control normalized to 100%. All measurements were performed in triplicate measurements to obtain standard error, and the reported cell viability is the average of these measurements. The IC50 was calculated using the formula:
as §2

[2] = Zeta potential of nanoGUMBOS; type: physicochemical; conditions: nanoGUMBOS at physiological pH (7.4)
Description: Following examination of the hydrophobicity of these GUMBOS, nanoGUMBOS were synthesized using a simple reprecipitaiton method as described in the experimental section. TEM images in Figure 2 are a display of spherical nanoparticles with diameters of ~100 nm for both R123 and SNAFR.

MCF7 cancer cells = assay: MTT cell viability assay, MCF7 breast cancer cells; design: species or system human; conditions: 48 h incubation
Method: as §1, §3, §2

[3] = Homo sapiens, MDA-MB-231, 48 h, RB and R110 GUMBOS and parent dyes
[4] = RB and R110 GUMBOS and parent dyes
[5] = R123- and SNAFR-5-based nanoGUMBOS and parent dyes

solubility thermodynamic (Water solubility study): > 700 µM
IC50 (MDA-MB-231 cancer cells; [3]): 781 µM
IC50 (MDA-MB-231 cancer cells; [4]): 791.2 ± 2.7 µM
Log Kow [1]: 0.22
SMILES: N=c1ccc2c(-c3ccccc3C(=O)O)c3ccc(N)cc3oc-2c1 [[R110][Cl], rhodamine 110 chloride, reference compound]
IC50 (Hs578Bst normal cells; Homo sapiens, Hs578Bst): 836.1 ± 5.3 µM

SMILES: COC(=O)c1ccccc1-c1c2ccc(N)cc2[o+]c2cc(N)ccc12.O=S(=O)([N-]S(=O)(=O)C(F)(F)C(F)(F)F)C(F)(F)C(F)(F)F [[R123][BETI]]
IC50 (MiaPaca cancer cells; [5]): 1.6 ± 0.7 µM
Zeta Potential [2]: −16.8 ± 1.1 mV
IC50 (MDA-MB-231 cancer cells; [5]): 17.4 ± 3.7 µM
Log Kow [1]: 1.1
IC50 (MCF7 cancer cells; [5]): > 100 µM

SMILES: COC(=O)c1ccccc1-c1c2ccc(=N)cc-2oc2cc(N)ccc12 [[R123][Cl], rhodamine 123, reference compound]
IC50 (MiaPaca cancer cells; Homo sapiens, MIA PaCa-2, R123- and SNAFR-5-based nanoGUMBOS and parent dyes): 3.1 ± 1.1 µM
IC50 (MDA-MB-231 cancer cells; Homo sapiens, MDA-MB-231, R123- and SNAFR-5-based nanoGUMBOS and parent dyes): 24.3 ± 2.2 µM
Log Kow [1]: 0.25
IC50 (MCF7 cancer cells; Homo sapiens, MCF7, R123- and SNAFR-5-based nanoGUMBOS and parent dyes): > 100 µM
Toxicity towards Hs578Bst normal cells (Hs578Bst normal cells; result in words, Figure 6): slight toxicity towards normal cells

SMILES: COC(=O)c1ccccc1-c1c2ccc(=[NH2+])cc-2oc2cc(N)ccc12.c1ccc([B-](c2ccccc2)(c2ccccc2)c2ccccc2)cc1 [[R123][TPB]]
IC50 (MiaPaca cancer cells; [5]): 2.5 ± 0.9 µM
Zeta Potential [2]: −16.5 ± 1.4 mV
IC50 (MDA-MB-231 cancer cells; [5]): 20.6 ± 3.5 µM
Log Kow [1]: 0.8
IC50 (MCF7 cancer cells; [5]): > 100 µM

SMILES: CCN(CC)c1ccc2c(-c3ccccc3C(=O)O)c3ccc(=[N+](CC)CC)cc-3oc2c1.O=S(=O)([N-]S(=O)(=O)C(F)(F)C(F)(F)F)C(F)(F)C(F)(F)F [[RB][BETI]]
IC50 (MDA-MB-231 cancer cells; [4]): 89.5 ± 3.4 µM
Log Kow [1]: 1.25
IC50 (Hs578Bst normal cells): 540 ± 6.2 µM

SMILES: CCN(CC)c1ccc2c(-c3ccccc3C(=O)O)c3ccc(=[N+](CC)CC)cc-3oc2c1 [[RB][Cl], Rhodamine B chloride, reference compound]
IC50 (MDA-MB-231 cancer cells; [3]): 291 ± 1.2 µM
Log Kow [1]: 1.1
IC50 (Hs578Bst normal cells; Homo sapiens, Hs578Bst): 500 ± 5.2 µM

SMILES: CCN(CC)c1ccc2c(-c3ccccc3C(=O)O)c3ccc(=[N+](CC)CC)cc-3oc2c1.c1ccc([B-](c2ccccc2)(c2ccccc2)c2ccccc2)cc1 [[RB][TPB]]
IC50 (MDA-MB-231 cancer cells; [4]): 77.5 ± 5.7 µM
Log Kow [1]: 1.6
IC50 (Hs578Bst normal cells): 533.7 ± 3.3 µM
